# Measured values as given in patent publication US9422283B2, “Salts and polymorphs of a substituted imidazopyridinyl-aminopyridine compound” (ArQule, Inc., priority 2014, dated 2016).
# “Also recorded” adds a separate entry of the source. Where a name gives a salt, the structure may show the parent alone. Read-outs that look alike come from different tables or passages of the source.
# Assays:
# Type in all cases: physicochemical
# [1] = Dynamic Vapour Sorption (DVS)
# Protocol: Approximately 10 mg of sample was placed into a mesh vapour sorption balance pan and loaded into a DVS-1 dynamic vapour sorption balance by Surface Measurement Systems. The sample was subjected to a ramping profile of 0-90%, 90-0% relative humidity (RH) at 10% increments for anhydrous samples and 30-90%, 90-0%, 0-90%, 90-0% for hydrated samples, maintaining the sample at each step until a stable weight had been achieved (99.5% step completion). The weight changes during the sorption/desorption cycles were plotted, allowing the hygroscopic nature of the sample to be determined.
# [2] = Stability testing of bis-mesylate forms for 1 week (XRPD, HPLC purity)
# Protocol: Form A, Form B, Form C, Form D, Form E and Form I were exposed to environments of 40° C./75% RH, ambient light (about 22° C.) and elevated temperature (80° C.) for 1 week to determine the stability. The resulting solids were analyzed by XRPD to establish if any form changes had occurred and by HPLC to determine purity.
# [3] = Aqueous solubility studies of bis-mesylate forms (slurry in deionised water, HPLC, XRPD)
# Protocol: Purity and concentration analyses were carried out using the following method:
# • Pan Number 186003045 Column Temperature: 25° C. Autosampler Temperature: 5° C. Detection: 226 nm Mobile Phase A: 95:5:0.1% Water:Methanol:TFA Mobile Phase B: 95:5:0.1% Methanol:Water:TFA Gradient: See table below for conditions Flow Rate: 1.0 mL/minute Injection Volume: 10 μl Analysis Time: 36 minutes Re-equilibration Time: 4 minutes Data Collection time: 36 minutes Needle Wash: 100% Methanol
# Slurries of Form A, Form B, Form C, Form D, Form E and Form I were created in deionised water and shaken for about 24 hours at ambient temperature (about 22° C.). The resulting solutions were then analyzed by HPLC and the aqueous solubility was determined. The remaining solids were analyzed by XRPD to determine if any form changes had occurred during slurrying.
# [4] = Solvent solubility screen by solvent addition technique; conditions: for observation in solubility screen: 40° C.; for solubility: 40 °C, thermodynamic from solid, amorphous input, read-out: Solubility (mg/mL) at 40° C.
# Protocol: The amorphous form of Compound A bis-mesylate salt was used as the input material for the solubility screen. Solubility values were estimated by a solvent addition technique in order to provide approximate values for generating slurries during later experiments. Approximately 15 mg of amorphous material was weighed out into 24 vials. Each solvent was added to the appropriate vial in 10 aliquots of 10 μl, 5 aliquots of 20 μl, 3 aliquots of 100 μl and 1 aliquot of 500 μl or until the material dissolved. In between additions, the sample was heated to 40° C. To vials which already contained 1000 μl of solvent but still had observable solid material, a further aliquot of 1000 μl of solvent was added. If 2000 μl of solvent was added without dissolution of the solid, solubility was calculated to be below this point.
# [5] = about 24 hours, ambient temperature
structure (smiles),measurement,setting,value
"Nc1ncccc1-c1nc2ccc(-c3ccccc3)nc2n1-c1ccc(C2(N)CCC2)cc1 [Form D, 3-(3-(4-(1-aminocyclobutyl)phenyl)-5-phenyl-3H-imidazo[4,5-b]pyridin-2-yl)pyridin-2-amine]",DVS (summary Table 21),[1],Hydration occurs
same,DVS desorption behaviour / hysteresis,[1],gradual loss of water and hence dehydration was observed as the relative humidity was decreased below 40% RH
same,DVS water uptake,"[1]; second sorption cycle, between 30% and 50% RH, after dehydration at 0% RH",about 12%
same,HPLC purity after stability test,[2]; 40° C./75% RH,about 99.9%
same,polymorphic form after stability test (XRPD),[2]; 40° C./75% RH,converted to Form J
same,HPLC purity after stability test,[2]; 80° C.,about 99.9%
same,polymorphic form after stability test (XRPD),[2]; 80° C.,Form I
same,polymorphic form after stability test (XRPD),[2]; ambient light (about 22° C.),remained unchanged
same,HPLC purity after stability test,[2]; ambient temperature,about 99.9%
same,polymorphic form after slurrying in deionised water (XRPD),[3]; [5],converted to Form E
"Nc1ncccc1-c1nc2ccc(-c3ccccc3)nc2n1-c1ccc(C2(N)CCC2)cc1 [Compound A bis-mesylate salt, 3-(3-(4-(1-aminocyclobutyl)phenyl)-5-phenyl-3H-imidazo[4,5-b]pyridin-2-yl)pyridin-2-amine]",observation in solubility screen,"[4]; 1,4-Dioxane",Colourless solution
same,observation in solubility screen,[4]; 2-Methyl THF,Colourless solution
same,observation in solubility screen,[4]; 2-Propanol,Good solubility
same,observation in solubility screen,[4]; 2-Propanol:water (50:50),Good solubility
same,solubility,"[4]; aqueous with cosolvent or surfactant or cyclodextrin, 2-Propanol:water (50:50)",~400 mg/mL
same,solubility,"[4]; organic solvent or mixture, 1,4-Dioxane",< 8 mg/mL
same,solubility,"[4]; organic solvent or mixture, 1-Butanol",< 8 mg/mL
same,solubility,"[4]; organic solvent or mixture, 2-Ethoxyethanol",< 8 mg/mL
same,solubility,"[4]; organic solvent or mixture, 2-Methyl THF",< 8 mg/mL
same,solubility,"[4]; organic solvent or mixture, 2-Propanol",~25 mg/mL
same,solubility,"[4]; organic solvent or mixture, Acetone:water (90:10)",~16 mg/mL
same,solubility,"[4]; organic solvent or mixture, Acetone",< 8 mg/mL
same,solubility,"[4]; organic solvent or mixture, Acetonitrile",< 8 mg/mL
same,solubility,"[4]; organic solvent or mixture, Cyclohexane",< 8 mg/mL
same,solubility,"[4]; organic solvent or mixture, Dichloromethane",< 8 mg/mL
same,solubility,"[4]; organic solvent or mixture, Diisopropyl ether",< 8 mg/mL
same,solubility,"[4]; organic solvent or mixture, Dimethylsulfoxide",~126 mg/mL
same,solubility,"[4]; organic solvent or mixture, Ethanol",< 8 mg/mL
same,solubility,"[4]; organic solvent or mixture, Ethyl acetate",< 8 mg/mL
same,solubility,"[4]; organic solvent or mixture, Heptane",< 8 mg/mL
same,solubility,"[4]; organic solvent or mixture, Isopropyl acetate",< 8 mg/mL
same,solubility,"[4]; organic solvent or mixture, Methanol",~40 mg/mL
same,solubility,"[4]; organic solvent or mixture, Methylethyl ketone",< 8 mg/mL
same,solubility,"[4]; organic solvent or mixture, Methylisobutyl ketone",< 8 mg/mL
same,solubility,"[4]; organic solvent or mixture, Tetrahydrofuran",< 8 mg/mL
same,solubility,"[4]; organic solvent or mixture, Toluene",< 8 mg/mL
same,solubility,"[4]; organic solvent or mixture, tert-Butylmethyl ether",< 8 mg/mL
same,solubility,[4]; Water,~769 mg/mL
same,observation in solubility screen,[4]; Acetone:water (90:10),Good solubility
same,observation in solubility screen,[4]; Cyclohexane,Colourless solution
same,observation in solubility screen,[4]; Dichloromethane,Colourless solution
same,observation in solubility screen,[4]; Diisopropyl ether,Colourless solution
same,observation in solubility screen,[4]; Dimethylsulfoxide,Good solubility
same,observation in solubility screen,[4]; Heptane,Colourless solution
same,observation in solubility screen,[4]; Isopropyl acetate,Colourless solution
same,observation in solubility screen,[4]; Methanol,Good solubility
same,observation in solubility screen,[4]; Methylethyl ketone,Colourless solution
same,observation in solubility screen,[4]; Methylisobutyl ketone,Colourless solution
same,observation in solubility screen,[4]; Toluene,Colourless solution
same,observation in solubility screen,[4]; Water,Good solubility
same,observation in solubility screen,[4]; tert-Butylmethyl ether,Colourless solution
"Nc1ncccc1-c1nc2ccc(-c3ccccc3)nc2n1-c1ccc(C2(N)CCC2)cc1 [Form E, 3-(3-(4-(1-aminocyclobutyl)phenyl)-5-phenyl-3H-imidazo[4,5-b]pyridin-2-yl)pyridin-2-amine]",DVS (summary Table 21),[1],Two hydration
same,DVS desorption behaviour / hysteresis,[1],dehydration occurred below 10% RH
same,hygroscopicity (DVS),[1],non-hygroscopic
same,polymorphic form after DVS analysis (XRPD),[1],RH Form E post
same,DVS water uptake,"[1]; second sorption cycle, below 20% RH",about 2.78%
same,DVS further water uptake,"[1]; second sorption cycle, between 20% and 40% RH",5.5%
same,HPLC purity after stability test,[2]; 40° C./75% RH,about 99.8%
same,polymorphic form after stability test (XRPD),[2]; 40° C./75% RH,remained unchanged
same,HPLC purity after stability test,[2]; 80° C.,about 99.8%
same,polymorphic form after stability test (XRPD),[2]; 80° C.,some differences were observed
same,polymorphic form after stability test (XRPD),[2]; ambient light (about 22° C.),remained unchanged
same,HPLC purity after stability test,[2]; ambient temperature,about 99.7%
same,solubility at 24 h,"[3]; 22 °C, water, thermodynamic from solid, deionised water, about 24 hours, ambient temperature (about 22° C.); read-out: aqueous solubility (HPLC concentration analysis)",~347 mg/mL
same,polymorphic form after slurrying in deionised water (XRPD),[3]; [5],remained unchanged; also recorded: Form E
"Nc1ncccc1-c1nc2ccc(-c3ccccc3)nc2n1-c1ccc(C2(N)CCC2)cc1 [Form B, 3-(3-(4-(1-aminocyclobutyl)phenyl)-5-phenyl-3H-imidazo[4,5-b]pyridin-2-yl)pyridin-2-amine]",DVS (summary Table 21),[1],Gradual uptake
same,DVS desorption behaviour / hysteresis,[1],gradual loss from 90% down to 0% RH
same,HPLC purity after stability test,[2]; 40° C./75% RH,about 99.8%
same,polymorphic form after stability test (XRPD),[2]; 40° C./75% RH,converted to Form J
same,HPLC purity after stability test,[2]; 80° C.,about 99.8%
same,polymorphic form after stability test (XRPD),[2]; 80° C.,Form I
same,polymorphic form after stability test (XRPD),[2]; ambient light (about 22° C.),remained unchanged
same,HPLC purity after stability test,[2]; ambient temperature,about 99.7%
same,polymorphic form after slurrying in deionised water (XRPD),[3]; [5],converted to Form E
"Nc1ncccc1-c1nc2ccc(-c3ccccc3)nc2n1-c1ccc(C2(N)CCC2)cc1 [Form A, 3-(3-(4-(1-aminocyclobutyl)phenyl)-5-phenyl-3H-imidazo[4,5-b]pyridin-2-yl)pyridin-2-amine]",DVS (summary Table 21),[1],Moderately
same,DVS desorption behaviour / hysteresis,[1],No significant hysteresis
same,hygroscopicity (DVS),[1],moderate hygroscopicity
same,polymorphic form after DVS analysis (XRPD),[1],consistent with Form A; also recorded: Form A post
same,DVS water uptake,[1]; up to 70% RH,about 2.4%
same,HPLC purity after stability test,[2]; 40° C./75% RH,about 99.8%
same,polymorphic form after stability test (XRPD),[2]; 40° C./75% RH,No change
same,HPLC purity after stability test,[2]; 80° C.,about 99.8%
same,polymorphic form after stability test (XRPD),[2]; 80° C.,No change
same,polymorphic form after stability test (XRPD),[2]; ambient light (about 22° C.),No change
same,HPLC purity after stability test,[2]; ambient temperature,about 99.7%
same,polymorphic form after slurrying in deionised water (XRPD),[3]; [5],converted to Form E
same,solubility at 24 h,"[3]; deionised water, 22 °C, water, thermodynamic from solid, deionised water, about 24 hours, ambient temperature (about 22° C.); read-out: aqueous solubility (HPLC concentration analysis)",~383 mg/mL
